Test results reported in patent US20250268821A1 (AVALYN PHARMA INC., priority 2022, published 2025).
Read-outs that look alike come from different tables or passages of the source.

Assays:
[1] = Particle size distribution by laser diffraction (Malvern Mastersizer 3000); format: physicochemical; conditions: for PSD D10 / PSD D50 / PSD D90: micronised API after jet milling
Procedure: Particle size distribution was measured using a Malvern Mastersizer 3000. The sample for analysis (10 mg) was suspended in 0.1% lecithin in isooctane (10 mL) and sonicated to disperse the particles prior to measurement. A single sample was prepared for each measurement.
Two batches were prepared and particle size distribution measured using a Mastersizer 3000 (Table 8).

[2] = Moisture content by Karl Fischer coulometry; format: physicochemical
Procedure: Three assay determinations were made for each assay and the mean value reported. Moisture content was measured by Karl Fischer coulometry using a Metrohm 851 Tritrando coulometer and sample oven. 50 mg of each sample was heated to 80° C. Lactose monohydrate was used as a bracketing standard. Single measurements were made for each sample. The emitted dose was measured using Dosage Unit Sampling Apparatus (DUSA) at 100 L/min. The samples were recovered using 50 mL of diluent. Ten determinations were performed and mean value reported

[3] = SEM, XRPD and overall stability assessment of micronised drug substance; format: physicochemical; conditions: 1 month 25°C/60% RH and 40°C/75% RH, then four months laboratory conditions
Procedure: Scanning electron microscopy and x-ray powder diffraction were performed at the University of Bath.
SEM images were recorded (FIGS. 1 and 2) and the polymorphic stability was assessed by XRPD (FIGS. 3 and 4) and DSC (FIG. 6). The characterization was then repeated after a further four months at laboratory conditions.

[4] = in vivo; cited from earlier work
[5] = Sheep pharmacokinetics (ELF and plasma): nebulized inhaled nintedanib, fixed combination with pirfenidone, oral nintedanib; format: in vivo; conditions: for Cmax / AUC / half-life / Tmax: female, Merino cross-bred, sheep
Procedure: All animals had received standard vaccinations and were treated orally with anthelminthic (in line with standard management practices) prior to arrival at the animal facility to eliminate any worm parasites before experimentation. Experimental animals were rotated between indoor small group pen housing and metabolism cages under controlled ambient conditions (20-22° C.) and maintained on a 12 h light/dark throughout the experimental period. […] All formulations used in this study were stored at room temperature (RT) and protected from light prior to use; drugs were prepared on day of use. Sheep arrived into the facility as one group and were acclimatized over 2-3 weeks (group housing to indoor cage/pens) prior to experimentation. […] Group 1 sheep also received Treatment 1b, an addition/modification to the original study protocol. Treatments were administered over Weeks 3-9 of the study; each experimental Treatment was performed over a one week period in either Group 1 or Group 2 sheep (e.g., one group received Treatment while the other group was rested). Group 1 and Group 2 sheep were allocated separate sampling schedules for peripheral blood and bronchoalveolar lavage fluid (BALF) collections (Table 16). For nebulized aerosol drug administration to the lungs (inhalation dosing), a lubricated cuffed endotracheal (ET) tube (Portex, 7.0-8.0 mm internal diameter) was inserted via the nasal passage (guided by a fibre-optic endoscope) into the trachea. […] Respiration was set to 20 breaths/min, 50% inspiration and a tidal volume of 350 mL. Filters (Hudson RCl, NC, USA) were placed in the expiratory line to collect any expired drug dose. Following drug administration all lines, filters and nebulizer components were rinsed with 50 mL sterile saline to collect any remaining or expired dose. Washout sample aliquots (500 μl) were frozen on dry ice in 1.5 mL Eppendorf tubes, then stored at −80° C. prior to shipment for drug content analyses. Oral drug administration (Treatment 3) followed the procedure as detailed below (oral dosing optimization). A feeding tube (7 mm internal diameter) was inserted via the nasal passage (guided by a fibre-optic endoscope) into the upper region of the esophagus. […] Blood samples collected prior to and following drug administration (Table 16) were placed into K3EDTA-coated tubes. […] BALF samples were collected prior to and following drug administration ([…]). Sampling was carried out by intra-lung infusion of 25 ml of sterile saline via a catheter through the biopsy port of the bronchoscope, followed by immediate retrieval of the BALF sample into the collection syringe. BALF was collected from separate lung segments/lobes to avoid contamination between sampling time-points: the right apical lobe (RA) was used for all pre-dose sampling and post-dose samples were collected from right middle (RM); right caudal (RC); left caudal (LC); left middle (LM); and left apical (LA) lung lobes. BALF sampling details (volumes, exact time of collection) were recorded and samples immediately frozen on dry ice, then stored at −80° C. prior to shipment for drug content analyses.

[6] = Pirfenidone-nintedanib interaction: physical stability of nintedanib solution in 67 mM sodium chloride; format: physicochemical; conditions: 0.25 mg/mL nintedanib, about 67 mM sodium chloride
Flt-3 = molecular target: T1, Flt-3 (Homo sapiens, UniProt P36888); conditions: cited from earlier work
T1 sequence (P36888 27-993): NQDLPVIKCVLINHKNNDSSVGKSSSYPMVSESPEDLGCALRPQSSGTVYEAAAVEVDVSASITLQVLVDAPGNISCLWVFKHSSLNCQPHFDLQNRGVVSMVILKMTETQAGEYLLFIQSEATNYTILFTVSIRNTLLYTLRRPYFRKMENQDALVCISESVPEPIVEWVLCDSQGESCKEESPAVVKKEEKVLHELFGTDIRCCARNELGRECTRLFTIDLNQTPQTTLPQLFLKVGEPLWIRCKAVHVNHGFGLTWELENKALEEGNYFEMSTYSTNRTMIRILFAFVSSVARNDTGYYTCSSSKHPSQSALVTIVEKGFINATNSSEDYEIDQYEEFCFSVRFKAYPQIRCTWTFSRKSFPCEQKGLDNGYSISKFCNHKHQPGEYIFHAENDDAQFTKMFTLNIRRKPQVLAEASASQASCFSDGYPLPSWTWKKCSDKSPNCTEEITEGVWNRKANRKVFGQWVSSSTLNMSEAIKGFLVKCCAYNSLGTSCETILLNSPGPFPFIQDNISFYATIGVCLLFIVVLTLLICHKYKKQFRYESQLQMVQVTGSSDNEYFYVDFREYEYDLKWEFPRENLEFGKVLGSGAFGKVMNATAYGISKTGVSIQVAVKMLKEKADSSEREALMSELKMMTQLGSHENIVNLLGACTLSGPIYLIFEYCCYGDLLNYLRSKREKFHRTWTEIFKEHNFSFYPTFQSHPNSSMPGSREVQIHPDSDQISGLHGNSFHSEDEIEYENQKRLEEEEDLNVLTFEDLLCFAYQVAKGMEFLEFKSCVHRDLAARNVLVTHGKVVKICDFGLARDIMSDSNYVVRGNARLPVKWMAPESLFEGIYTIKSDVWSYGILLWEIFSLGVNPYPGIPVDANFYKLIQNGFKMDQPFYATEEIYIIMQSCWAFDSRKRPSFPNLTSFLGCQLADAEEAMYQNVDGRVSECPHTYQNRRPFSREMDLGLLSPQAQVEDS

Src = Src (Homo sapiens, UniProt P12931); conditions: cited from earlier work
[7] = previously known; various salt forms; cited from earlier work
Lyn = Lyn (Homo sapiens, UniProt P07948); conditions: cited from earlier work
[8] = Clinical study in healthy volunteers: inhaled nebulized vs oral nintedanib (ELF and plasma pharmacokinetics, safety); format: in vivo; conditions: human
Text: To characterize how dry powder nintedanib may perform in humans, a clinical study was first conducted comparing inhaled nebulized and oral nintedanib in healthy volunteers.

[9] = +4 months at laboratory conditions
[10] = inhaled nebulized, 2 mg, IPD = immediate post dose

Sequence of Lyn (P07948 whole entry, species assumed): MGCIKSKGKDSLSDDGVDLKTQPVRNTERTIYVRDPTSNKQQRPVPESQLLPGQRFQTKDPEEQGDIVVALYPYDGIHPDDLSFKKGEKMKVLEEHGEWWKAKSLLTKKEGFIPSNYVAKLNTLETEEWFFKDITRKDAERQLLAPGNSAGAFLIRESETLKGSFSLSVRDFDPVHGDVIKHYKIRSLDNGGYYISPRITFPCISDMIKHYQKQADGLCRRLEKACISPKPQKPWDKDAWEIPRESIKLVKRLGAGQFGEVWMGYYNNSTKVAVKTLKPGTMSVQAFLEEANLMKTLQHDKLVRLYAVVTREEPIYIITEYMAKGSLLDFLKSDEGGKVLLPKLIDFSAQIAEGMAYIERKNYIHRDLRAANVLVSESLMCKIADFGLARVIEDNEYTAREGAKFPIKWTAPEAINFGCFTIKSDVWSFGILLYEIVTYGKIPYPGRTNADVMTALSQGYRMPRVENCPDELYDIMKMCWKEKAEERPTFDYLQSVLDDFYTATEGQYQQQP
Sequence of Src (P12931 whole entry, species assumed): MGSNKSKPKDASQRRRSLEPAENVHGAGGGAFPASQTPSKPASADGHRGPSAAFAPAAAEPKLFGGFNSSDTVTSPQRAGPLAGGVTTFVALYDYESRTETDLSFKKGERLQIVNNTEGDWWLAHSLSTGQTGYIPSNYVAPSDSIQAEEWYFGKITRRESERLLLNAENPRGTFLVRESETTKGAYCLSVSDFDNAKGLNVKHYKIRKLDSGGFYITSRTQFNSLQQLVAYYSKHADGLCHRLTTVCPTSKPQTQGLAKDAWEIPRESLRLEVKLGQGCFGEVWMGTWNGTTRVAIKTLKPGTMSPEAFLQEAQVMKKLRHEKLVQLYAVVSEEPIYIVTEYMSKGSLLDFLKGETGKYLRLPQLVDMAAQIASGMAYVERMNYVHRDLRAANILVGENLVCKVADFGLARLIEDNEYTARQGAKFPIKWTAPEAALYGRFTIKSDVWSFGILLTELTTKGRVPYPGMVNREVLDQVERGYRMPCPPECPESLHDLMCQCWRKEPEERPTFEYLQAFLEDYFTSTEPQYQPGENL

Q: With `Br.COC(=O)c1ccc2c(c1)NC(=O)/C2=C(\Nc1ccc(N(C)C(=O)CN2CCN(C)CC2)cc1)c1ccccc1` [Batch 2] as the compound, how does the “PSD D10” value [1] read?
A: 0.60 μm

Q: What about the “PSD D50” value [1] of the same compound?
A: 1.51 μm

Q: What about the “PSD D90” value [1] of the same compound?
A: 2.87 μm

Q: With `COC(=O)c1ccc2c(c1)NC(=O)/C2=C(\Nc1ccc(N(C)C(=O)CN2CCN(C)CC2)cc1)c1ccccc1` [Micronised Nintedanib HBr] as the compound, how does the D10 ([1]; 1 month 25/60) read?
A: 0.6 mcm

Q: And the D50 ([1]; 1 month 25/60)?
A: 1.6 mcm

Q: And the D90 ([1]; 1 month 25/60)?
A: 3.0 mcm

Q: And the D10 ([1]; 1 month 40/75)?
A: 0.6 mcm

Q: What about the D50 ([1]; 1 month 40/75) of the same compound?
A: 1.5 mcm

Q: And the D90 ([1]; 1 month 40/75)?
A: 2.6 mcm

Q: What about the D10 [1, 9] of the same compound?
A: 0.6 mcm

Q: What about the D50 [1, 9] of the same compound?
A: 1.5 mcm

Q: And the D90 [1, 9]?
A: 2.9 mcm

Q: What about the D10 ([1]; T0) of the same compound?
A: 0.5 mcm

Q: What about the D50 ([1]; T0) of the same compound?
A: 1.5 mcm

Q: And the D90 ([1]; T0)?
A: 2.8 mcm

Q: And the “Water Content” value ([2]; 1 month 25/60)?
A: 5.3%

Q: And the “Water Content” value ([2]; 1 month 40/75)?
A: 5.2%

Q: And the “Water Content” value [2, 9]?
A: 4.7%

Q: And the “Water Content” value ([2]; T0)?
A: 5.3%

Q: And the “stability of micronised drug substance (PSD, moisture, SEM, XRPD, DSC)” value [3]?
A: did not change during the study

Q: With `COC(=O)c1ccc2c(c1)NC(=O)/C2=C(\Nc1ccc(N(C)C(=O)CN2CCN(C)CC2)cc1)c1ccccc1` [Nintedanib, methyl (3Z)-3-[[4-[methyl-[2-(4-methylpiperazin-1-yl)acetyl]amino]anilino]-phenylmethylidene]-2-oxo-1H-indole-6-carboxylate] as the compound, how does the “fraction of administered nintedanib excreted in the urine” value [4] read?
A: About 80%

Q: And the “adverse responses to oral dosing” value ([5]; 75 mg oral with glucose chaser)?
A: without any adverse responses observed

Q: And the Cmax ([5]; epithelial lining fluid (ELF), inhaled or intranasal, 0.06 mg/kg, inhaled nebulized liquid, 2 mg (0.06 mg/kg), read-out: ELF Cmax)?
A: 7380 ng/mL

Q: And the Cmax ([5]; epithelial lining fluid (ELF), inhaled or intranasal, 0.06 mg/kg, inhaled nebulized monotherapy, 2 mg (0.06 mg/kg), Table 19, read-out: ELF Cmax)?
A: 7880 ng/mL

Q: What about the AUC ([5]; epithelial lining fluid (ELF), inhaled or intranasal, 2 mg, inhaled nebulized monotherapy, 2 mg, Table 19, read-out: ELF AUC) of the same compound?
A: 7300 ng·h/mL

Q: What about the AUC ([5]; epithelial lining fluid (ELF), inhaled or intranasal, 2 mg, inhaled nebulized, 2 mg, read-out: ELF AUC) of the same compound?
A: 5400 ng·h/mL

Q: And the half-life ([5]; epithelial lining fluid (ELF), inhaled or intranasal, inhaled nebulized, 2 mg, read-out: ELF T1/2 (α) (converted))?
A: 0.25 h

Q: And the Cmax ([5]; epithelial lining fluid (ELF), po, 2.14 mg/kg, oral, 75 mg (2.14 mg/kg), 3 mg/mL in water, read-out: ELF Cmax)?
A: 74 ng/mL

Q: What about the AUC ([5]; epithelial lining fluid (ELF), po, 75 mg, oral, 75 mg, read-out: ELF AUC) of the same compound?
A: 1200 ng·h/mL

Q: What about the half-life ([5]; epithelial lining fluid (ELF), oral, 75 mg, read-out: ELF T1/2 (converted)) of the same compound?
A: 10 h

Q: And the Tmax ([5]; epithelial lining fluid (ELF), oral, 75 mg, read-out: ELF Tmax)?
A: 10 h

Q: What about the AUC ([5]; plasma, inhaled or intranasal, 2 mg, inhaled nebulized monotherapy, 2 mg, Table 19, read-out: Plasma AUC) of the same compound?
A: 4 ng·h/mL

Q: What about the Cmax ([5]; plasma, inhaled or intranasal, 2 mg, inhaled nebulized monotherapy, 2 mg, Table 19, read-out: Plasma Cmax) of the same compound?
A: 3.9 ng/mL

Q: What about the AUC ([5]; plasma, inhaled or intranasal, 2 mg, inhaled nebulized, 2 mg, read-out: Plasma AUC) of the same compound?
A: 7 ng·h/mL

Q: What about the Cmax ([5]; plasma, inhaled or intranasal, 2 mg, inhaled nebulized, 2 mg, read-out: Plasma Cmax) of the same compound?
A: 5.9 ng/mL

Q: What about the half-life ([5]; plasma, inhaled or intranasal, inhaled nebulized, 2 mg, read-out: Plasma T1/2 (α) (converted)) of the same compound?
A: 0.25 h

Q: What about the AUC ([5]; plasma, po, 75 mg, oral, 75 mg, read-out: Plasma AUC) of the same compound?
A: 58 ng·h/mL

Q: And the Cmax ([5]; plasma, po, 75 mg, oral, 75 mg, read-out: Plasma Cmax)?
A: 3.6 ng/mL

Q: What about the half-life ([5]; plasma, oral, 75 mg, read-out: Plasma T1/2 (converted)) of the same compound?
A: 10 h

Q: What about the Tmax ([5]; plasma, oral, 75 mg, read-out: Plasma Tmax) of the same compound?
A: 9 h

Q: What about the “ELF Tmax” value [5, 10] of the same compound?
A: IPD^b

Q: And the “Plasma Tmax” value [5, 10]?
A: IPD^b

Q: What about the “pirfenidone parts per 1 part nintedanib (weight by weight) that stabilizes nintedanib in solution” value [6] of the same compound?
A: greater than 30 parts

Q: And the inhibition (Flt-3)?
A: inhibited

Q: And the inhibition (Src)?
A: inhibited

Q: What about the “sodium chloride concentration at which nintedanib is physically unstable in solution” value [7] of the same compound?
A: ≥ 30 mM

Q: What about the inhibition (Lyn) of the same compound?
A: inhibited

Q: What about the AUC ([8]; epithelial lining fluid (ELF), inhaled or intranasal, inhaled nebulized liquid 2 mg, read-out: ELF AUC) of the same compound?
A: 3400 ng·h/mL

Q: What about the Cmax ([8]; epithelial lining fluid (ELF), inhaled or intranasal, inhaled nebulized liquid 2 mg, read-out: ELF Cmax) of the same compound?
A: 4660 ng/mL

Q: And the AUC ([8]; epithelial lining fluid (ELF), oral tablet 150 mg, read-out: ELF AUC)?
A: 1200 ng·h/mL

Q: And the Cmax ([8]; epithelial lining fluid (ELF), oral tablet 150 mg, read-out: ELF Cmax)?
A: 72.7 ng/mL

Q: What about the Tmax ([8]; plasma, inhaled or intranasal, inhaled nebulized liquid 2 mg) of the same compound?
A: 0.2 h

Q: And the AUC ([8]; plasma, inhaled or intranasal, inhaled nebulized liquid 2 mg, read-out: Plasma AUC)?
A: 4 ng·h/mL

Q: And the Cmax ([8]; plasma, inhaled or intranasal, inhaled nebulized liquid 2 mg, read-out: Plasma Cmax)?
A: 2.8 ng/mL

Q: What about the Tmax ([8]; plasma, oral tablet 150 mg) of the same compound?
A: 7.8 h

Q: What about the AUC ([8]; plasma, oral tablet 150 mg, read-out: Plasma AUC) of the same compound?
A: 163 ng·h/mL

Q: What about the Cmax ([8]; plasma, oral tablet 150 mg, read-out: Plasma Cmax) of the same compound?
A: 13.5 ng/mL

Q: With `Br.COC(=O)c1ccc2c(c1)NC(=O)/C2=C(\Nc1ccc(N(C)C(=O)CN2CCN(C)CC2)cc1)c1ccccc1` [Batch 1] as the compound, how does the “PSD D10” value [1] read?
A: 0.04 μm

Q: And the “PSD D50” value [1]?
A: 1.03 μm

Q: And the “PSD D90” value [1]?
A: 2.66 μm
